Test [1] concerns Mycobacterium tuberculosis. Nature of the test: Inhibition of siderophore production in Mycobacterium bovis BCG at 250 to 1000 mM incubated for 15 days by universal CAS assay. To be noted: variant bovis BCG. Format: functional, organism-based.
Test [2] concerns Mycobacterium tuberculosis. Nature of the test: Inhibition of myco-bactins production in Mycobacterium bovis BCG at 250 to 1000 mM by universal CAS assay. Format: functional, organism-based. To be noted: variant bovis BCG.

Active and inactive are the calls of the source. No cut-off for these calls is given here.

With `N#Cc1cccc(-c2ccc(C(=O)O)o2)c1`, the inhibition entry in test [1] and in test [2] was “Active” throughout.
